The source of these data is article PMC8453936, “Development and in vitro Profiling of Dual FXR/LTA4H Modulators” (Chemmedchem, 2021).

Several values for one entry are separate records, joined by “and”; a condition that tells them apart may be missing. Equal entries are not always repeated. Where two headings read alike, the source gives them in different places.

One may read the IC50 as the concentration needed to halve the response being measured. What is called EC50 is the midpoint of the concentration-response curve.

One test deals with T1, recombinant human LTA4H (Homo sapiens, UniProt P09960).
T1 sequence (P09960 1-611): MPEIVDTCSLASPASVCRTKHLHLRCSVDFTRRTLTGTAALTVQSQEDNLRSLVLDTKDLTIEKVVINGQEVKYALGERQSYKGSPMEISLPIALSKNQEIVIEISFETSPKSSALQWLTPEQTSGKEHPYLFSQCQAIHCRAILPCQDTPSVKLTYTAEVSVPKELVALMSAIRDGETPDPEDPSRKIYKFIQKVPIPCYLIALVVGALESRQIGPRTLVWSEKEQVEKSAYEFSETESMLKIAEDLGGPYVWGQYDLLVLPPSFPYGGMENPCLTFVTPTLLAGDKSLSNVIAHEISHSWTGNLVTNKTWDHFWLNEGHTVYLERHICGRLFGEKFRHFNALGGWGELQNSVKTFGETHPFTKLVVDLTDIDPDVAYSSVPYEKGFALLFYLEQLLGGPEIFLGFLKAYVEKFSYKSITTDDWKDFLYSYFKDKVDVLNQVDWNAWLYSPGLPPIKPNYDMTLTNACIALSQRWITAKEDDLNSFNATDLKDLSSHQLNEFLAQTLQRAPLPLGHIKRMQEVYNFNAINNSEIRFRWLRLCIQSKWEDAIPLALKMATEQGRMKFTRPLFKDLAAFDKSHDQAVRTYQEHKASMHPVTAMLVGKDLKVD
The following applies: for LTA4H max. inhib.: LTA4H inhibition at the highest tested concentration (up to 100 μM), mean±S.E.M., n=3.

In test [1] the target is T2, full-length human FXR (Homo sapiens, UniProt Q96RI1).
T2 construct: coding for the full‐length human nuclear receptors FXR and RXRα; expressed in transfected cells; host or cells: HeLa
T2 sequence (Q96RI1 1-486): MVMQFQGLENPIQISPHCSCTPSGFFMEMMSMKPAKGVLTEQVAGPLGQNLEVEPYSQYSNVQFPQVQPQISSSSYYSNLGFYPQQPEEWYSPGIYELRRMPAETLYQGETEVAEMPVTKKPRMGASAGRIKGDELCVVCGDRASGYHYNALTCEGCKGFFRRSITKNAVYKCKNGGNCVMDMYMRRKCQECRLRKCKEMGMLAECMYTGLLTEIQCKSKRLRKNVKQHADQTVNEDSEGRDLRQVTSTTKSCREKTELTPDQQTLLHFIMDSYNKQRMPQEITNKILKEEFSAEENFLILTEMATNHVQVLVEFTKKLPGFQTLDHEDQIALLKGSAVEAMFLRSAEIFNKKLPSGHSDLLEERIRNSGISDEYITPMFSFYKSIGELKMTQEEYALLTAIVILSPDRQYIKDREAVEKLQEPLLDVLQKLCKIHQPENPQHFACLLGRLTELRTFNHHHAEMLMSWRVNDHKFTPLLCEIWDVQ
T2 sequence (P19793 1-462 partner): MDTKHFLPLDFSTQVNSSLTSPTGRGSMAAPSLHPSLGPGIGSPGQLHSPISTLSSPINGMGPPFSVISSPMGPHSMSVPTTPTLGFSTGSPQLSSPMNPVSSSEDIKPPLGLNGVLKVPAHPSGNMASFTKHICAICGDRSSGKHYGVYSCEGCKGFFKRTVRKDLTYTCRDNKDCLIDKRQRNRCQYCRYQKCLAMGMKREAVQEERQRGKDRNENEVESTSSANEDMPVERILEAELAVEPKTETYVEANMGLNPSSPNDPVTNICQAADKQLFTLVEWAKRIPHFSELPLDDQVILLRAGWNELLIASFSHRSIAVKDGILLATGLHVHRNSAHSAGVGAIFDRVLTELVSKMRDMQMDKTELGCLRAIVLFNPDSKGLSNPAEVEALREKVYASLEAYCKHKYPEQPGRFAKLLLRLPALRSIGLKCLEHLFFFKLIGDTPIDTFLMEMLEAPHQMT
The conditions noted are these: mean±S.E.M., n≥3, previously reported, cited from earlier work; for FXR efficacy (maximum FXR activation relative to 3 μM GW4064): 3 μM GW4064 = 100 % activation; for EC50 / EC50(FXR): full-length FXR reporter gene assay, BSEP promoter, HeLa. For orientation: A reporter such as luciferase makes a cellular process visible.

Test [2] addresses T2, full-length human FXR. The test can be described thus: Full-length FXR:RXR reporter gene assay (BSEP promoter, HeLa, transiently transfected). Type of test: cell-based. The following applies: mean±S.E.M., n≥3; for EC50: full-length FXR reporter gene assay, BSEP promoter, HeLa; for FXR efficacy (maximum FXR activation relative to 3 μM GW4064): 3 μM GW4064 = 100 % activation. The protocol: Full‐length FXR:RXR reporter gene assay. HeLa cells were grown in DMEM high glucose supplemented with 10 % FCS, sodium pyruvate (1 mM), penicillin (100 U/mL) and streptomycin (100 μg/mL) at 37 °C and 5 % CO2 and seeded in 96‐well plates 24 h before transfection with a density of 8000 cells per well. 3.5 h before transfection, medium was changed to DMEM high glucose, supplemented with sodium pyruvate (1 mM), penicillin (100 U/mL), streptomycin (100 μg/mL) and 0.5 % charcoal‐stripped FCS. Cells were then transiently transfected with using the calcium phosphate transfection method with pGL3basic‐BSEP[26, 27] (containing a shortened construct of the promotor of the bile salt export protein (BSEP) cloned into the SacI/NheI cleavage site in front of the luciferase gene), pcDNA3‐hFXR[26] and pSG5‐hRXR[38] coding for the full‐length human nuclear receptors FXR and RXRα, and pRL‐SV40 (Promega) for normalization of transfection efficiency and cell growth. 16 h after transfection, medium was changed to DMEM high glucose, supplemented with sodium pyruvate (1 mM), penicillin (100 U/mL), streptomycin (100 μg/mL) and 0.5 % charcoal‐stripped FCS. 24 h after transfection, medium was changed to DMEM without phenol red, supplemented with sodium pyruvate (1 mM), penicillin (100 U/mL), streptomycin (100 μg/mL), L‐glutamine (2 mM) and 0.5 % charcoal‐stripped FCS, now additionally containing 0.1 % DMSO and the respective test compound or 0.1 % DMSO alone as untreated control. Each sample was tested in triplicate wells and each experiment was repeated independently at least three times. Following 24 h incubation with the test compounds, cells were assayed for luciferase activity using Dual‐Glo Luciferase Assay System (Promega) according to the manufacturer's protocol. Luminescence was measured with a Tecan Spark M luminometer (Tecan). Normalization of transfection efficiency and cell growth was done by division of firefly luciferase data by Renilla luciferase data multiplied by 1000 resulting in relative light units (RLU). Fold activation was obtained by dividing the mean RLU of the tested compound at a respective concentration by the mean RLU of untreated control. EC50 and standard error of the mean values were calculated with the mean fold activation values of at least three independent experiments with SigmaPlot 10.0 (Systat Software GmbH, Erkrath, Germany) using a four‐parameter logistic regression.

From the text for recombinant human LTA4H: FXR modulation by 3–20 was characterized in a cellular (HeLa, transiently transfected) full‐length FXR reporter gene assay employing the human FXR response element from the promoter region of bile salt export protein (BSEP) to govern firefly luciferase expression as reporter gene.[26, 27] FXR and its natural heterodimer partner retinoid X receptor (RXR) were constitutively over‐expressed and a constitutively expressed renilla luciferase was present as internal control for transfection efficiency and cellular health.
LTA4H assay. […] The assay was performed in black polystyrol 96‐well plates in a final volume of 100 μL. Test compound solution in DMSO (1 μL) or DMSO alone as control were incubated with 89 μl protein mixture (containing LTA4H, buffer and Triton‐X‐100). After 30 min, 10 μl of substrate mixture (containing L‐arginin‐7‐amido‐4‐methylcumarine and DMSO in buffer) were added. […] A blank measurement containing no protein was performed and treated as 0 % conversion control. All samples were measured in triplicates and each experiment was conducted in three independent repeats.

On to `O=C(O)c1cccc(NC(=O)c2ccc(OCCc3ccccc3)cc2)c1` [compound 9], for which, on recombinant human LTA4H, the half-inhibitory concentration (IC50) is 610 ± 60 nM and the LTA4H max. inhib. stood at 96.0±0.2%. Further, on full-length human FXR [1], the “FXR efficacy (maximum FXR activation relative to 3 μM GW4064)” value was 56±1% and the EC50 was 150 ± 20 nM.
Regarding `O=C(O)Cc1cccc(NC(=O)c2ccc(OCCCc3ccccc3)cc2)c1` [compound 17], at recombinant human LTA4H, the half-inhibitory concentration (IC50) was 1900 ± 100 nM and the LTA4H max. inhib. is listed as 97.0±0.2%. The compound also gave a 50% effective concentration (EC50) at full-length human FXR [2] above 30000 nM.
For `O=C(Nc1ccnc(C(=O)O)c1)c1ccc(Oc2ccccc2)cc1` [compound 14], at recombinant human LTA4H, the IC50 worked out at 950 ± 10 nM and the LTA4H max. inhib. is listed as 97.9±0.1%.
Regarding `CS(=O)(=O)Nc1cccc(NC(=O)c2ccc(OCCCc3ccccc3)cc2)c1` [compound 18], on recombinant human LTA4H, the IC50 is 130 ± 10 nM and the LTA4H max. inhib. is listed as 89.5±0.5%. In addition, on full-length human FXR [2], the “FXR efficacy (maximum FXR activation relative to 3 μM GW4064)” value was 35±2% and the EC50 stood at 1600 ± 400 nM.
On to `O=C(O)c1cccc(NC(=O)c2ccc(OCc3ccccc3)cc2)c1` [compound 10], for which, at recombinant human LTA4H, the concentration for half-maximal inhibition (IC50) turned out to be 1100 ± 100 nM and the LTA4H max. inhib. turned out to be 94.9±0.2%. In addition, the “FXR efficacy (maximum FXR activation relative to 3 μM GW4064)” value at full-length human FXR [1] was 20±1%.
Turning to `O=C(O)c1cccc(NC(=O)c2ccc(Oc3cccc(-c4ccccc4)c3)cc2)c1` [compound 12], on recombinant human LTA4H, the IC50 came out at 5200 ± 600 nM and the LTA4H max. inhib. came out at 81.1±0.6%. Also, at full-length human FXR [2], the “FXR efficacy (maximum FXR activation relative to 3 μM GW4064)” value was 14% and 14±1%; it took 300 ± 100 nM to reach a half-maximal effect (EC50).
Take `O=C(O)c1cccc(NC(=O)c2ccc(OCCCCc3ccccc3)cc2)c1` [compound 3]: on recombinant human LTA4H, the half-inhibitory concentration (IC50) amounted to 540 ± 70 nM and the LTA4H max. inhib. is 97.2±0.4%. For the same compound, at full-length human FXR [1], the “FXR efficacy (maximum FXR activation relative to 3 μM GW4064)” value was 34% and 34±1%.
`O=C(Nc1nc(C(=O)O)co1)c1ccc(OCCCc2ccccc2)cc1` [compound 20]: the LTA4H max. inhib. on recombinant human LTA4H stood at 99.7±0.1%. Further, at full-length human FXR [2], the “FXR efficacy (maximum FXR activation relative to 3 μM GW4064)” value is listed as 30±1% and the EC50 came to 11000 ± 2000 nM.
`O=C(Nc1cccc2c(=O)cc(-c3nnn[nH]3)oc12)c1ccc(OCCCCc2ccccc2)cc1` [compound 4, pranlukast, reference compound]: at recombinant human LTA4H, the IC50 is 1600 ± 200 nM and the LTA4H max. inhib. is recorded as 82.6±0.8%.
Regarding `O=C(O)c1ccc(NC(=O)c2ccc(OCCCCc3ccccc3)cc2)cc1` [compound 7], at recombinant human LTA4H, the IC50 worked out at 370 ± 20 nM and the LTA4H max. inhib. is reported as 97.8±0.1%. For the same compound, at full-length human FXR [1], the “FXR efficacy (maximum FXR activation relative to 3 μM GW4064)” value is 29±1% and the 50% effective concentration (EC50) is 14 ± 1 nM.
Regarding `O=C(Nc1cccc2c(=O)cc(C(=O)O)oc12)c1ccc(OCCCCc2ccccc2)cc1` [compound 5], at recombinant human LTA4H, the IC50 is 15000 ± 2000 nM and the LTA4H max. inhib. is recorded as 80±5%. Besides, the “EC50(FXR)” value at full-length human FXR [1] is “inactive (50 μM)”.
`O=C(O)c1cccc(NC(=O)c2ccc(Oc3ccccc3)cc2)c1` [compound 11]: on recombinant human LTA4H, the IC50 was found to be 550 ± 60 nM and the LTA4H max. inhib. is recorded as 98.2±0.1%. At full-length human FXR [1], the “FXR efficacy (maximum FXR activation relative to 3 μM GW4064)” value was 35±1% and the EC50 is 1 ± 0.3 nM.
For `O=C(Nc1cccc(C(=O)O)n1)c1ccc(Oc2ccccc2)cc1` [compound 13], at recombinant human LTA4H, the concentration for half-maximal inhibition (IC50) came to 280 ± 20 nM and the LTA4H max. inhib. is 90.8±0.3%. Also, at full-length human FXR [1], the “EC50(FXR)” value is “antagonist”.
On to `COc1c(NC(=O)c2ccc(OCCCCc3ccccc3)cc2)cccc1C(=O)O` [compound 6], for which, at recombinant human LTA4H, the half-inhibitory concentration (IC50) turned out to be 5500 ± 500 nM and the LTA4H max. inhib. is reported as 85±2%. On full-length human FXR [1], the “FXR efficacy (maximum FXR activation relative to 3 μM GW4064)” value is 26±1% and the concentration for a half-maximal effect (EC50) was 190 ± 20 nM.
Turning to `O=C(O)c1ccc(NC(=O)c2ccc(OCCCc3ccccc3)cc2)cc1` [compound 16], on recombinant human LTA4H, the IC50 came out at 200 ± 20 nM and the LTA4H max. inhib. was determined as 98.8±0.1%.
Take `O=C(O)c1ccnc(NC(=O)c2ccc(Oc3ccccc3)cc2)c1` [compound 15]: at recombinant human LTA4H, the IC50 came to 2100 ± 100 nM and the LTA4H max. inhib. is given as 89.6±0.6%. Moreover, at full-length human FXR [1], the “FXR efficacy (maximum FXR activation relative to 3 μM GW4064)” value is recorded as 56±1% and the concentration for a half-maximal effect (EC50) was 70 ± 20 nM.
